The text below walks through data of patent US9303062B2, “Solid oxidized glutathione salt and method for producing same” (priority 2011, dated 2016).

Series [1] in a line: Solubility in water at 25° C. under normal pressure. The settings on record: supernatant by HPLC. It counts as physicochemical. On the procedure:
The solubility of the solid oxidized glutathione salt of the present invention in water at temperature of 25° C. can be calculated according to the following formula, and the solubility is, for example, 10 mass % or more, preferably 20 mass % or more, and more preferably 30 mass % or more.
Solubility (%)=mass of dissolved oxidized glutathione/(mass of water+mass of dissolved oxidized glutathione)×100
Evaluation 1: Solubility in water at 25° C. under normal pressure and deliquescency of oxidized glutathione salt
Each of the powders of the solid-state oxidized glutathione salt obtained in the above respective Examples was dissolved in water until the powder was not further dissolved. After each slurry was stirred for 30 minutes or longer, the supernatant was obtained and the concentrations of each oxidized glutathione and salt were calculated using HPLC. For comparison, the solubilities of the following conventionally known solid oxidized glutathiones were investigated in the same manner as the above.

A short description of series [2]: Deliquescency of powder at 25° C., normal pressure, 75% RH, observed with naked eyes. It counts as physicochemical. The settings on record: relative humidity 75% RH. On the procedure:
The solid oxidized glutathione salt obtained as described above has low deliquescency and high water solubility. The deliquescency of the solid oxidized glutathione can be evaluated by allowing a powder of the salt to stand in an environment at a temperature of 25° C., normal pressure, e.g. 1 atmospheric pressure, and a relative humidity of 75% RH, and observing whether deliquescence starts or not with naked eyes.
Each of the powders of the solid-state oxidized glutathione salt obtained in the above respective Examples was allowed to stand in atmospheric condition of a temperature of 25° C., normal pressure and a relative humidity of 75% RH. After 2 hours or 24 hours, it was determined whether or not deliquescence was is present by observing the occurrence of shape change with naked eyes. For comparison, the deliquescencies of the above commercially available solid oxidized glutathiones were investigated in the same manner.

“oxidized glutathione hemicalcium salt [Example 6]” had a Solubility in series [1] of 58 mass %. For the same substance, the “Deliquescency 2 hours” value in series [2] (after 2 hours) is given as “no”. The “Deliquescency 24 hours” value in series [2] (after 24 hours) is reported as “no”.

In series [1], “oxidized glutathione monoammonium salt [Example 2]” came in with a Solubility of 34.8 mass %.
